According to ChEMBL document CHEMBL1649386, “Synthesis and in vitro cytotoxic evaluation of some thiazolylbenzimidazole derivatives” (Eur J Med Chem, 2011):
pIC50: −log10 of the molar value.

Columns and labels:
A549 (Homo sapiens) = assay: Cytotoxicity against human A549 cells after 72 hrs by MTT assay; conditions: A549, 72 h
SMMC-7721 = assay: Cytotoxicity against human SMMC7721 cells after 72 hrs by MTT assay; conditions: SMMC-7721, 72 h

| SMILES | pIC50 (A549 (Homo sapiens)) | pIC50 (SMMC-7721) |
| --- | --- | --- |
| Cc1nc(-c2nc3ccccc3n2Cc2ccccc2)sc1C(=O)NC(C)C | 5.18 | 5.16 |
| CCN(CC)CCNC(=O)c1sc(-c2nc3ccccc3n2Cc2ccccc2)nc1C | 5.61 | 5.94 |
| CCOC(=O)c1csc(-c2nc3ccccc3n2CC)n1 | < 4.70 | < 4.70 |
| Cc1nc(-c2nc3ccccc3n2Cc2ccccc2)sc1C(=O)N1CCCCC1 | < 4.70 | < 4.70 |
| CCOC(=O)c1sc(-c2nc3ccccc3n2C(C)C)nc1C | < 4.70 | < 4.70 |
| CC(=O)O[C@H]1C(=O)[C@@]2(C)[C@H]([C@H](OC(=O)c3ccccc3)[C@]3(O)C[C@H](OC(=O)[C@H](O)[C@@H](NC(=O)c4ccccc4)c4ccccc4)C(C)=C1C3(C)C)[C@]1(OC(C)=O)CO[C@@H]1C[C@@H]2O [PACLITAXEL] | – | 5.85 |
| Cc1nc(-c2nc3ccccc3n2Cc2ccccc2)sc1C(=O)O | < 4.70 | 4.82 |
| CCOC(=O)c1csc(-c2nc3ccccc3n2C)n1 | < 4.70 | 4.78 |
| CCOC(=O)c1csc(-c2nc3ccccc3n2Cc2ccccc2)n1 | < 4.70 | 4.89 |
| Cc1nc(-c2nc3ccccc3n2Cc2ccccc2)sc1C(=O)N1CCOCC1 | < 4.70 | < 4.70 |
| Cc1nc(-c2nc3ccccc3n2Cc2ccccc2)sc1C(=O)Nc1ccccc1 | 5.40 | 5.43 |
| CCOC(=O)c1sc(-c2nc3ccccc3n2CC)nc1C | < 4.70 | 5.01 |
| CCOC(=O)c1sc(-c2nc3ccccc3n2C)nc1C | < 4.70 | 4.86 |
| Cc1nc(-c2nc3ccccc3n2Cc2ccccc2)sc1C(=O)N1CCN(C)CC1 | < 4.70 | 4.70 |
| CCOC(=O)Cc1csc(-c2nc3ccccc3n2C)n1 | < 4.70 | < 4.70 |
| CCOC(=O)c1sc(-c2nc3ccccc3n2Cc2ccccc2)nc1C | < 4.70 | 5.56 |
| Cc1nc(-c2nc3ccccc3n2Cc2ccccc2)sc1C(=O)NC1CCCCC1 | 5.28 | 4.91 |
